In patent publication US9499551B2, “Substituted pyrrolo[2,3-b]pyridines for treating cancer or inflammatory diseases” (Confluence Life Sciences, Inc., priority 2014, dated 2016) one finds IC50 data, which are given here for 28 molecules.

One may read the IC50 as the concentration at which inhibition is half-maximal.

For one assay, the target named is T1, TAK1-TAB1 (Homo sapiens, UniProt O43318).
T1 sequence (O43318 with tags, fused parts or gaps limits assumed): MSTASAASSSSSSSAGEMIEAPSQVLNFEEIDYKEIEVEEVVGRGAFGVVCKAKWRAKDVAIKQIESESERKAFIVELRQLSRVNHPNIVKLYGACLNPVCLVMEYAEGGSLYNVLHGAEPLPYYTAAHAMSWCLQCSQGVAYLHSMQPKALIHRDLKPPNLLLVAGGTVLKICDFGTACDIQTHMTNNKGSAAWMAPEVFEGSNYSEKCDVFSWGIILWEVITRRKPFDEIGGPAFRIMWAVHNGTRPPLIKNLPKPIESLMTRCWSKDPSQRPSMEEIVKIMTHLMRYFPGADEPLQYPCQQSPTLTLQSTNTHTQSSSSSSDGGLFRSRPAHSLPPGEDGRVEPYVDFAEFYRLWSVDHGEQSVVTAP
The assay is described as follows: TAK1-TAB1 binding inhibitory potency (LanthaScreen competitive binding assay, kinase tracer-236). The settings on record: 10 nM TAK1-TAB1, 100 nM kinase tracer-236; read-out: TAK1-Tab Inhibition IC50. The text has this: TAK1-TAB1 Binding Inhibitory Potency:
The ability of candidate compounds to interact with TAK1-TAB1 is quantitated by a competitive binding assay using the LanthaScreen technology developed by Life Technologies. This assay is based on the binding of a proprietary, Alexa Fluor® 647-labeled, ATP-competitive kinase inhibitor (kinase tracer-236) to the TAK1-TAB1 construct in presence of a europium-conjugated antibody, resulting in a FRET (fluorescence resonance energy transfer) signal. Displacement of the kinase tracer by compound results in a lower emission ratio upon excitation of the europium chelate. Candidate compounds are designed as potential irreversible inhibitors of TAK1-TAB1, capable of ligating to an active site cysteine residue. The time dependent nature of irreversible inhibition is investigated by performing the binding assay with and without a pre-incubation of compound and TAK1-TAB1.
The inhibitory potency of candidate compounds is measured in 20 mM HEPES pH 7.5, 10 mM MgCl2, 0.01% BSA, 0.0005% Tween-20, and 2% DMSO in the presence of 10 nM TAK1-TAB1, 2 nM Eu-anti-his antibody, and 100 nM kinase tracer-236 using a 384-well plate format. Background signal is defined in the absence of TAK1-TAB1 and uninhibited signal is defined in the presence of vehicle (2% DMSO) alone. Compounds were evaluated in an 11 point dose-response ranging from 20 μM to 0.34 nM. The binding assays are performed under two conditions to evaluate time dependence of inhibition. For the pre-incubation assay, TAK1-TAB1 and Eu-anti-his antibody are preincubated with compound or vehicle for two hours prior to the addition of kinase tracer. The non-preincubated assay is run in which TAK1-TAB1 and Eu-anti-his antibody are added to a mixture of compound and kinase tracer. IC50 values of compounds are determined using a 4 parameter logistical fit of emission ratio as a function of the concentration of compound. […]

The test system of assay [1] is IL-6 Production in Human Peripheral Blood Mononuclear Cells (PBMC). Briefly: LPS stimulated IL-6 production in PBMC cells. Type of assay: cell-based. The settings on record: read-out: IL-6 Production Inhibition IC50. How it is done: LPS Stimulated IL-6 Production in PBMC Cells:
Lipopolysaccharide (LPS) stimulated IL-6 Production in Human Peripheral Blood Mononuclear Cells (PBMC): The cellular efficacy of compound candidates is determined using peripheral blood mononuclear cells purified from human whole blood, based upon the methods of Burnette et al. (2009) Pharmacology, 84:42-60. PBMC produce a number of cytokines (IL6, IL8, IL1β and TNFα) in response to stimulation with LPS. To induce the production of inflammatory mediators, PBMC are plated at a final concentration of 2×10^5 cells/well in a 96 well flat bottom plate in DMEM medium supplemented with 10% fetal bovine serum, 100 units/ml penicillin and 100 μg/ml streptomycin (Gibco BRL Life Technologies). Cells are treated with or without inhibitors for 1-3 hrs then stimulated with 100 ng/ml LPS (serotype 011:B4, Sigma) for an additional 3 hrs at 37° C. with 5% CO2. The supernatants are removed and stored at −20° C. until they are to be assayed. The levels of inflammatory mediators are determined using commercial MSD cytokine kits (Meso Scale Discovery) as per the manufacturer's instructions. Standard curves are based on 7 steps of 4× serial dilutions, with a wide dynamic range of 10000 pg/ml to 2.4 pg/ml, and a blank. Lower limit of detection (LLOD) is calculated at the commonly used 3× the standard deviation of the blank.

As to `NC(=O)/C=C/c1c[nH]c2ncc(-c3ccccc3)cc12` [Example 1, 3-(5-Phenyl-1H-pyrrolo[2,3-b]pyridin-3-yl)-acrylamide], the concentration for half-maximal inhibition (IC50) (on TAK1-TAB1; in assay [1]) was no more than 1000 nM throughout.
On to `NC(=O)/C=C/c1c[nH]c2ncc(-c3ccc(F)cc3F)cc12` [Example 2, (E)-3-(5-(2,4-Difluorophenyl)-1H-pyrrolo[2,3-b]pyridin-3-yl)acrylamide], for which the half-maximal inhibitory concentration (IC50) (on TAK1-TAB1; in assay [1]) was no more than 1000 nM in each case.
`NC(=O)/C=C/c1c[nH]c2ncc(-c3ccccc3)nc12` [Example 4, (E)-3-(2-Phenyl-5H-pyrrolo[2,3-b]pyrazin-7-yl)acrylamide]: the IC50 (on TAK1-TAB1; in assay [1]) was no more than 1000 nM throughout.
`Cn1cc(-c2cnc3[nH]cc(/C=C/C(N)=O)c3c2)cn1` [Example 5, (E)-3-(5-(1-Methyl-1H-pyrazol-4-yl)-1H-pyrrolo[2,3-b]pyridin-3-yl)acrylamide]: the IC50 (at TAK1-TAB1; in assay [1]) was no more than 1000 nM throughout.
Consider `Cn1cc(-c2cnc3[nH]cc(/C=C/C(N)=O)c3n2)cn1` [Example 6, (E)-3-(2-(1-Methyl-1H-pyrazol-4-yl)-5H-pyrrolo[2,3-b]pyrazin-7-yl)acrylamide], for which the half-inhibitory concentration (IC50) (on TAK1-TAB1; in assay [1]) was no more than 1000 nM throughout.
On to `CC(C)Oc1ccnc2[nH]cc(/C=C/C(N)=O)c12` [Example 7, (E)-3-(4-Isopropoxy-1H-pyrrolo[2,3-b]pyridin-3-yl)acrylamide], for which the IC50 (at TAK1-TAB1; in assay [1]) was no more than 1000 nM each time.
Take `CC(C)Oc1cnc2[nH]cc(/C=C/C(N)=O)c2c1` [Example 8, 3-(5-Isopropoxy-1H-pyrrolo[2,3-b]pyridin-3-yl)-acrylamide]: the IC50 (at TAK1-TAB1; in assay [1]) was no more than 1000 nM each time.
For `CC(C)Nc1cnc2[nH]cc(/C=C/C(N)=O)c2c1` [Example 9, 3-(5-Isopropylamino-1H-pyrrolo[2,3-b]pyridin-3-yl)-acrylamide], the half-maximal inhibitory concentration (IC50) (on TAK1-TAB1; in assay [1]) was no more than 1000 nM throughout.
With `CC(C)Nc1cnc2[nH]cc(/C=C/C(N)=O)c2n1` [Example 10, 3-(2-Isopropylamino-5H-pyrrolo[2,3-b]pyrazin-7-yl)-acrylamide], the IC50 (on TAK1-TAB1; in assay [1]) was no more than 1000 nM in each case.
Consider `COc1cccc(-c2cnc3[nH]cc(/C=C/C(N)=O)c3c2)c1` [Example 11, (E)-3-(5-(3-Methoxyphenyl)-1H-pyrrolo[2,3-b]pyridin-3-yl)acrylamide], for which the IC50 (on TAK1-TAB1; in assay [1]) was no more than 1000 nM throughout.
Consider `COc1ccc(-c2cnc3[nH]cc(/C=C/C(N)=O)c3c2)cc1` [Example 12, (E)-3-(5-(4-Methoxyphenyl)-1H-pyrrolo[2,3-b]pyridin-3-yl)acrylamide], for which the IC50 (at TAK1-TAB1; in assay [1]) was no more than 1000 nM throughout.
With `NC(=O)/C=C/c1c[nH]c2ncc(-c3cccnc3)cc12` [Example 13, 3-(5-Pyridin-3-yl-1H-pyrrolo[2,3-b]pyridin-3-yl)-acrylamide], the IC50 (on TAK1-TAB1; in assay [1]) was no more than 1000 nM each time.
Turning to `N#Cc1ccc(-c2cnc3[nH]cc(/C=C/C(N)=O)c3c2)cc1` [Example 17, 3-[5-(4-Cyano-phenyl)-1H-pyrrolo[2,3-b]pyridin-3-yl]-acrylamide], the IC50 (on TAK1-TAB1; in assay [1]) was no more than 1000 nM in each case.
For `N#Cc1cccc(-c2cnc3[nH]cc(/C=C/C(N)=O)c3c2)c1` [Example 18, 3-[5-(3-Cyano-phenyl)-1H-pyrrolo[2,3-b]pyridin-3-yl]-acrylamide], the concentration for half-maximal inhibition (IC50) (at TAK1-TAB1; in assay [1]) was no more than 1000 nM throughout.
As to `COc1ccc(-c2cnc3[nH]cc(/C=C/C(N)=O)c3c2)cn1` [Example 20, (E)-3-(5-(6-methoxypyridin-3-yl)-1H-pyrrolo[2,3-b]pyridin-3-yl)acrylamide], the IC50 (on TAK1-TAB1; in assay [1]) was no more than 1000 nM throughout.
On to `CS(=O)(=O)c1ccc(-c2cnc3[nH]cc(/C=C/C(N)=O)c3c2)cc1` [Example 23, (E)-3-(5-(4-(methylsulfonyl)phenyl)-1H-pyrrolo[2,3-b]pyridin-3-yl)acrylamide], for which the concentration for half-maximal inhibition (IC50) is no more than 1000 nM at TAK1-TAB1 and greater than 1000 nM in assay [1].
Taken in the same sequence, the figures for `CC(C)(O)COc1ccc(-c2cnc3[nH]cc(/C=C/C(N)=O)c3c2)cc1` [Example 32, (E)-3-(5-(4-(2-hydroxy-2-methylpropoxy)phenyl)-1H-pyrrolo[2,3-b]pyridin-3-yl)acrylamide] were no more than 1000 nM and no more than 1000 nM.
Take `NC(=O)/C=C/c1c[nH]c2ncc(Cc3ccccc3)cc12` [Example 39]: the IC50 (at TAK1-TAB1; in assay [1]) was no more than 1000 nM throughout.
In the case of `N#C/C(=C\c1c[nH]c2ncc(-c3ccccc3)cc12)C(N)=O` [Example 226, (E)-2-Cyano-3-(5-phenyl-1H-pyrrolo[2,3-b]pyridin-3-yl)acrylamide], the concentration for half-maximal inhibition (IC50) (at TAK1-TAB1; in assay [1]) was no more than 1000 nM each time.
For the molecule `COCCN(C)C(=O)c1cnc2[nH]cc(/C=C/C(N)=O)c2c1` [Example 357, (E)-3-(3-amino-3-oxoprop-1-en-1-yl)-N-(2-methoxyethyl)-N-methyl-1H-pyrrolo[2,3-b]pyridine-5-carboxamide], on TAK1-TAB1, the half-inhibitory concentration (IC50) was no more than 1000 nM.
With `Cc1cc(C2CCC(c3cnc4[nH]cc(/C=C/C(N)=O)c4c3)CC2)cc(C(F)(F)F)c1` (centres unmarked) [Example 358, (E)-3-(5-(4-(3-methyl-5-(trifluoromethyl)phenyl)cyclohexyl)-1H-pyrrolo[2,3-b]pyridin-3-yl)acrylamide], the IC50 at TAK1-TAB1 was no more than 1000 nM.
Take `CC(C)c1ccccc1-c1cnc2[nH]cc(/C=C/C(N)=O)c2n1` [Example 359]: the IC50 at TAK1-TAB1 was no more than 1000 nM.
The same measure, in the same setting: the same measure for `CC(C)(O)c1ccc(-c2cnc3[nH]cc(/C=C(\C#N)C(N)=O)c3c2)cc1` [Example 360, (E)-2-cyano-3-(5-(4-(2-hydroxypropan-2-yl)phenyl)-1H-pyrrolo[2,3-b]pyridin-3-yl)acrylamide]: no more than 1000 nM; for `CC(C)(O)c1cccc(-c2cnc3[nH]cc(/C=C(\C#N)C(N)=O)c3c2)c1` [Example 361, (E)-2-cyano-3-(5-(3-(2-hydroxypropan-2-yl)phenyl)-1H-pyrrolo[2,3-b]pyridin-3-yl)acrylamide]: no more than 1000 nM; for `NC(=O)/C=C/c1c[nH]c2ncc(-c3ccc(C(=O)c4cc(F)cc(F)c4)cc3)cc12` [Example 362, (E)-3-(5-(4-(3,5-difluorobenzoyl)phenyl)-1H-pyrrolo[2,3-b]pyridin-3-yl)acrylamide]: no more than 1000 nM.
Same read-out and setting: the value for `NC(=O)/C=C/c1c[nH]c2ncc(-c3ccc(N4CCCCC4)nc3)cc12` [Example 363, (E)-3-(5-(6-(piperidin-1-yl)pyridin-3-yl)-1H-pyrrolo [2,3-b]pyridin-3-yl)acrylamide] was no more than 1000 nM; that for `N#C/C(=C\c1c[nH]c2ncc(-c3ccc(OCC4CC4)nc3)cc12)C(N)=O` [Example 364, (E)-2-cyano-3-(5-(6-(cyclopropyl-methoxy)pyridin-3-yl)-1H-pyrrolo[2,3-b]pyridin-3-yl)acrylamide] was no more than 1000 nM; that for `CC(C)(O)c1cccc(-c2cnc3[nH]cc(C=C(C(N)=O)C(N)=O)c3c2)c1` [Example 365, 2-((5-(3-(2-hydroxypropan-2-yl)phenyl)-1H-pyrrolo[2,3-b]pyridin-3-yl)methylene) malonamide] was no more than 1000 nM.
